The target of experiment [1] is T1, JAK3 (Homo sapiens, UniProt P52333).
T1 sequence (P52333 1-1124): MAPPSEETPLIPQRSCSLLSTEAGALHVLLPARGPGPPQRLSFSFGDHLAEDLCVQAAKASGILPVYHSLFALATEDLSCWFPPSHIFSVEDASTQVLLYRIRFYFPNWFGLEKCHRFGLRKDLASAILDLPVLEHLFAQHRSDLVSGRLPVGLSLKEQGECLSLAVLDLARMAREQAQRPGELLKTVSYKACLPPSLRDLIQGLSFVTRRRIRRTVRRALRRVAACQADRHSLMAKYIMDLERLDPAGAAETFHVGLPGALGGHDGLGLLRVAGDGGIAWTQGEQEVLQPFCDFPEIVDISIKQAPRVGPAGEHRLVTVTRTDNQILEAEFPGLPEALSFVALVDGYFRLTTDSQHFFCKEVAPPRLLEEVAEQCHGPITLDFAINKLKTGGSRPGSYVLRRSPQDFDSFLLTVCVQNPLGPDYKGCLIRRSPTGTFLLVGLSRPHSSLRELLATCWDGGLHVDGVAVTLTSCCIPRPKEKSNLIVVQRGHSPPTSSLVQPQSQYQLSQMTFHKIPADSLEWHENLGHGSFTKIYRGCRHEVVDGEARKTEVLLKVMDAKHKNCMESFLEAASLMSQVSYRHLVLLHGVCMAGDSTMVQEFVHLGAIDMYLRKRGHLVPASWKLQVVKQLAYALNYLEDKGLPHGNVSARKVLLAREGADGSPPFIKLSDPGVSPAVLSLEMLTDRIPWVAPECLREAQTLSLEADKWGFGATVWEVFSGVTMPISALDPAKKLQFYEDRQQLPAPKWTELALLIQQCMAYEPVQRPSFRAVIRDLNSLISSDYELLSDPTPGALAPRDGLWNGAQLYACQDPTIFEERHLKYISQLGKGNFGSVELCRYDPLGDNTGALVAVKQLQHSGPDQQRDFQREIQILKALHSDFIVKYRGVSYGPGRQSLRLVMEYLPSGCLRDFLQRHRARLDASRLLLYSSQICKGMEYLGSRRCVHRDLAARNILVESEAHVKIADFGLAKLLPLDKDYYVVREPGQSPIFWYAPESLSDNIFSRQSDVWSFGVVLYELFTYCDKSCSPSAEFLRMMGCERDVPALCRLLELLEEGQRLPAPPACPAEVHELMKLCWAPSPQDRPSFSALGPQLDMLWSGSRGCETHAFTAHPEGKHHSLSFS
Kind of experiment: HTRF kinase assay, inhibition rate at […]. Format: biochemical. As to conditions: read-out: Inhibit rate (%). (In general: In TR-FRET formats the signal depends on donor and acceptor labels being close together.)

Experiment [2] has as its target T1, JAK3. Kind of experiment: HTRF kinase assay (Cryptate/XL665), dose-response IC50. Format: biochemical.

The structures appear in SMILES notation.

Take `CN1CCC(Nc2nc(Nc3ccc(Oc4ccccc4)cc3)c3c(=O)[nH]cc(Br)c3n2)CC1` [compound 4]: the inhibition at 25 µM at JAK3 [1] is 93.37 ± 0.01%.

As to `CN1CCN(c2ccc(Nc3ncc4cc(C#N)c(=O)n(C5CCCC5)c4n3)cc2)CC1` [compound 5], the inhibition at 25 µM at JAK3 [1] worked out at 75.2 ± 0.85%.

In turn, `CC(=O)Nc1cc(Oc2ccc3c(C(=O)Nc4ccc(CN5CCN(C)CC5)c(C(F)(F)F)c4)cccc3c2)ncn1` [compound 8] displayed an IC50 at JAK3 [2] of 4.11 µM. This lies in the single-digit micromolar range.

The term IC50 denotes the point on the concentration scale where inhibition reaches its midpoint.

Values taken from PMC10598672, “A hybrid energy-based and AI-based screening approach for the discovery of novel inhibitors of JAK3” (Frontiers in Medicine, 2023).
